Paper PMC11112591 (ACS Omega, 2024)

target: CYP51 (Trypanosoma cruzi, UniProt Q7Z1V1); assay: CYP51 inhibition of initial hits; format: biochemical; details: initial hit data, Figure 1
Sequence (Q7Z1V1 whole entry): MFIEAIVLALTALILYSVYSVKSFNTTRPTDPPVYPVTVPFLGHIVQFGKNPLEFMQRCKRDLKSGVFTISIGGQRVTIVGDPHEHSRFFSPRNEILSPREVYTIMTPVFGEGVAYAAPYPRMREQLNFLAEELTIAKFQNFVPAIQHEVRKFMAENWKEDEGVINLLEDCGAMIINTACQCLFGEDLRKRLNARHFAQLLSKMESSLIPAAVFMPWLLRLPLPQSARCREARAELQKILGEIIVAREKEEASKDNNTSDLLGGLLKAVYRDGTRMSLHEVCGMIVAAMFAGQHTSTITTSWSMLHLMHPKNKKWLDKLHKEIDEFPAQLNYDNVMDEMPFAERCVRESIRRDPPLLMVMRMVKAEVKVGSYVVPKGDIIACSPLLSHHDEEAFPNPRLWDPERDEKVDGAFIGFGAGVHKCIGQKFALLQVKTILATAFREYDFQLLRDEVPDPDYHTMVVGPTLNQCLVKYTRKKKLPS

CYP51 IC50 | Compound
no clear CYP51 inhibition | Cc1cc(C)c(C#N)c(SCC(=O)c2cccs2)n1 [Compound 1, c1(SCC(=O)c2cccs2)nc(C)cc(C)c1C#N]

test system: not listed separately; assay: Mouse liver microsome intrinsic clearance; format: in vitro ADME; details: liver microsomes, pH 7.4

Compound | microsomal CLint at 0.5 µM [µL/min/mg]
Cc1cc(C)c(C#N)c(SCC(=O)c2ccsc2)n1 [Compound 3, S(c1nc(C)cc(C)c1C#N)CC(=O)c2cscc2] | 1320
Cc1cc(C)c(C#N)c(SCC(=O)c2ccc(Cl)cc2)n1 [Compound 8, Cc1c(C#N)c(SCC(=O)c2ccc(Cl)cc2)nc(C)c1] | 8880
Cc1cc(C)c(C#N)c(SCC(=O)c2ccc(Cl)cc2Cl)n1 [Compound 9, Clc1cc(ccc1C(CSc2c(C#N)c(C)cc(C)n2)=O)Cl] | 35300
CCc1ccc(C(=O)CSc2nc(C)cc(C)c2C#N)cc1 [Compound 5, S(c1nc(C)cc(C)c1C#N)CC(=O)c2ccc(CC)cc2] | 8860
Cc1cc(C)c(C#N)c(SCC(=O)c2ccccc2)n1 [Compound 2, c1c(C)c(C#N)c(SCC(=O)c2ccccc2)nc1C] | 1560
Cc1cc(C)c(C#N)c(SCC(=O)c2ccc(F)cc2F)n1 [Compound 7, O=C(CSc1nc(C)cc(C)c1C#N)c2ccc(F)cc2F] | 4040
Cc1cc(C)c(C#N)c(SCC(=O)c2cccs2)n1 [Compound 1, c1(SCC(=O)c2cccs2)nc(C)cc(C)c1C#N] | 3480

Other lines, results leading:

microsomal CLint at 0.5 µM [µL/min/mg] | Compound
73.9 | Cc1cc(C)c(C#N)c(SCC(=O)N2CCOCC2)n1 [Compound 16, Cc1c(C#N)c(SCC(=O)N2CCOCC2)nc(C)c1]
892 | Cc1cc(C)c(C(N)=O)c(SCC(=O)c2ccc(F)cc2)n1 [Compound 38, O=C(CSc1nc(C)cc(C)c1C(=O)N)c2ccc(F)cc2]
4300 | COc1ccc(C(=O)CSc2nc(C)cc(C)c2C#N)cc1 [Compound 11, S(c1nc(C)cc(C)c1C#N)CC(=O)c2ccc(OC)cc2]
3240 | Cc1cc(C)c(C#N)c(OCC(=O)c2ccccc2)n1 [Compound 23, O(c1nc(C)cc(C)c1C#N)CC(=O)c2ccccc2]
9670 | COc1ccccc1C(=O)CSc1nc(C)cc(C)c1C#N [Compound 10, S(c1nc(C)cc(C)c1C#N)CC(=O)c2ccccc2OC]

test system: not listed separately; assay: Parallel artificial membrane permeability assay; format: in vitro ADME; details: PAMPA, PAMPA effective permeability, donor pH 6.5, acceptor pH 7.5, 5 h, 37 °C

Compound | Papp at 5 h, 1 µM [×10⁻⁶ cm/s]
Cc1cc(C)c(C#N)c(SCC(=O)c2ccsc2)n1 [Compound 3, S(c1nc(C)cc(C)c1C#N)CC(=O)c2cscc2] | 23.3
Cc1cc(C)c(C#N)c(SCC(=O)c2ccc(Cl)cc2)n1 [Compound 8, Cc1c(C#N)c(SCC(=O)c2ccc(Cl)cc2)nc(C)c1] | 4.3
Cc1cc(C)c(C#N)c(SCC(=O)c2ccc(Cl)cc2Cl)n1 [Compound 9, Clc1cc(ccc1C(CSc2c(C#N)c(C)cc(C)n2)=O)Cl] | 1.7
CCc1ccc(C(=O)CSc2nc(C)cc(C)c2C#N)cc1 [Compound 5, S(c1nc(C)cc(C)c1C#N)CC(=O)c2ccc(CC)cc2] | 1
Cc1cc(C)c(C#N)c(SCC(=O)c2ccccc2)n1 [Compound 2, c1c(C)c(C#N)c(SCC(=O)c2ccccc2)nc1C] | 20.4
Cc1cc(C)c(C#N)c(SCC(=O)c2ccc(F)cc2F)n1 [Compound 7, O=C(CSc1nc(C)cc(C)c1C#N)c2ccc(F)cc2F] | 7.5
Cc1cc(C)c(C#N)c(SCC(=O)c2cccs2)n1 [Compound 1, c1(SCC(=O)c2cccs2)nc(C)cc(C)c1C#N] | 25.4
Cc1cc(C)c(C#N)c(SCC(=O)c2ccc(F)cc2)n1 [Compound 6, S(c1nc(C)cc(C)c1C#N)CC(=O)c2ccc(F)cc2] | 8

Continued, values first:

Papp at 5 h, 1 µM [×10⁻⁶ cm/s] | Compound
11.7 | Cc1cc(C)c(C#N)c(SCC(=O)N2CCOCC2)n1 [Compound 16, Cc1c(C#N)c(SCC(=O)N2CCOCC2)nc(C)c1]
17.5 | Cc1cc(C)c(C(N)=O)c(SCC(=O)c2ccc(F)cc2)n1 [Compound 38, O=C(CSc1nc(C)cc(C)c1C(=O)N)c2ccc(F)cc2]
24.6 | COc1ccc(C(=O)CSc2nc(C)cc(C)c2C#N)cc1 [Compound 11, S(c1nc(C)cc(C)c1C#N)CC(=O)c2ccc(OC)cc2]
31.1 | Cc1cc(C)c(C#N)c(OCC(=O)c2ccccc2)n1 [Compound 23, O(c1nc(C)cc(C)c1C#N)CC(=O)c2ccccc2]
9.3 | COc1ccccc1C(=O)CSc1nc(C)cc(C)c1C#N [Compound 10, S(c1nc(C)cc(C)c1C#N)CC(=O)c2ccccc2OC]
